# Data from patent US8222417B2, “Compound having 11β-HSD1 inhibitory activity” (Taisho Pharmaceutical Co., Ltd, priority 2007, dated 2012).
# Molecular target: T1, 11β-HSD1 (Homo sapiens, UniProt P28845)
# T1 construct: human liver microsome (enzyme source, Tissue Transformation Technologies); tissue Tissue Transformation Technologies; host or cells: human liver microsomes
# Assay: 11β-HSD1 inhibition test (human liver microsome, HTRF cortisol detection)
# Format: biochemical
# Conditions: human liver microsome as enzyme source; cortisone 100 nM; 20° C., 80 minutes; generated cortisol quantified by HTRF
# Experimental: Test Example [11β-HSD1 Inhibition Test]
# Test Compounds were Evaluated as Follows.
# 11β-HSD1 enzyme reaction was performed in a reaction solution of 100 μl total volume using 96-well polypropylene microplates. The reaction solution was prepared in 30 mM Tris-HCl (pH 7.4)/1 mM EDTA buffer to contain NADPH at a final concentration of 100 μM, G6P at a final concentration of 1 mM, human liver microsome (enzyme source, Tissue Transformation Technologies) at a final concentration of 0.8 μg/ml and 10 μl of a test compound dissolved in DMSO. The enzyme reaction was initiated by addition of cortisone at a final concentration of 100 nM. After incubation at 20° C. for 80 minutes, 10 μl of 1 mM 18β glycyrrhetinic acid, which is a non-specific inhibitor, was added to stop the reaction. Next, the amount of generated cortisol was quantified with a detection kit (Sceti Medical Labo K.K., Japan) according to the HTRF (Homogeneous Time-Resolved Fluorescence) method. This system detects fluorescence resonance energy transfer between europium-labeled anti-cortisol antibody and XL665-labeled cortisol. Upon addition of unlabeled cortisol, binding signals will be attenuated due to competitive reaction. Based on this principle, the amount of cortisol generated by the enzyme reaction was evaluated using a standard curve obtained from samples with known concentrations of cortisol included in the kit. The HTRF reaction was performed in 96-well half area microplates as follows: to 30 μl enzyme reaction solution, an anti-cortisol antibody solution (15 μl) and an XL665-labeled cortisol solution (15 μl) included in the kit were added, and the plates were vortexed at room temperature for 1 hour and further allowed to stand at 20° C. for 1 hour. 40 μl of this reaction solution was transferred to 384-well microplates and measured for its fluorescence. 18β Glycyrrhetinic acid was added to wells before initiation of the enzyme reaction and the amount of cortisol generated in these wells was used as a background level. Test compounds were evaluated using serial dilutions at a common ratio of 3 to calculate their IC50 values, assuming that the amount of cortisol generated in wells containing no test compound was set to 100% enzyme activity.
# T1 sequence (P28845 whole entry): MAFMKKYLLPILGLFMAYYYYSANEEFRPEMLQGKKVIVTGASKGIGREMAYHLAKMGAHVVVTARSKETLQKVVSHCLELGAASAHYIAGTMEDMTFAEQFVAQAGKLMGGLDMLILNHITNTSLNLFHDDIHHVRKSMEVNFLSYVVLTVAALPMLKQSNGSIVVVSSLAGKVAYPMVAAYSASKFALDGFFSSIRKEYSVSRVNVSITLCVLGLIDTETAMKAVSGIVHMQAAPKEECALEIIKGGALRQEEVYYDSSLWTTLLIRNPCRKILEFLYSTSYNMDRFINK
row,SMILES,IC50 [nM]
1,"NC(=O)[C@]12CC3CC(C1)[C@@H](NC(=O)N1CCOc4ccccc41)C(C3)C2 [Compound 37b, N-[E-5-carbamoyladamantan-2-yl]-2,3-dihydro-4H-1,4-benzoxazine-4-carboxamide]",0.6
2,"O=C(N[C@H]1C2CC3CC1C[C@](O)(C3)C2)N1CCOc2ccc(F)cc21 [Compound 19, 6-fluoro-N-(E-1-hydroxyadamantan-4-yl)-2,3-dihydro-4H-1,4-benzoxazine 4-carboxamide]",3.5
3,"O=C(N[C@H]1C2CC3CC1C[C@](O)(C3)C2)N1CCSc2ccccc21 [Compound 27, N-(E-5-hydroxyadamantan-2-yl)-2,3-dihydro-4H-1,4-benzothiazine-4-carboxamide]",0.7
4,"O=C(N[C@H]1C2CC3CC1C[C@](O)(C3)C2)N1CCCc2ccccc21 [Compound A-1, N-[E-1-hydroxyadamantan-4-yl]-3,4-dihydroquinoline-1(2H)-carboxamide]",0.7
5,"O=C(N[C@H]1C2CC3CC1C[C@](F)(C3)C2)N1CCCc2ccccc21 [Compound 12, N-(E-1-fluoroadamantan-4-yl)-3,4-dihydroquinoline-1(2H)-carboxamide]",1
6,"O=C(OC1C2CC3CC1CC(O)(C3)C2)N1CCOc2ccccc21 (stereo not drawn) [Compound 42b, E-5-hydroxyadamantan-2-yl 2,3-dihydro-4H-1,4-benzoxazine-4-carboxylate]",4.6
7,"CO[C@]12CC3CC(C1)[C@@H](NC(=O)N1CCOc4ccccc41)C(C3)C2 [Compound 40, N-(E-1-methoxyadamantan-4-yl)-2,3-dihydro-4H-1,4-benzoxazine-4-carboxamide]",1.1
8,"COC(=O)c1ccc2c(c1)N(C(=O)N[C@H]1C3CC4CC1C[C@](O)(C4)C3)CCO2 [Compound 20, methyl 4-[(E-5-hydroxyadamantan-2-yl)carbamoyl]-3,4-dihydro-2H-1,4-benzoxazine-6-carboxylate]",6.7
9,"Cc1ccc2c(c1)N(C(=O)N[C@H]1C3CC4CC1C[C@](O)(C4)C3)CCC2 [Compound 6, N-(E-1-hydroxyadamantan-4-yl)-7-methyl-3,4-dihydroquinoline-1(2H)-carboxamide]",0.6
